Experimental findings from patent US9856279B2 (AGIOS PHARMACEUTICALS, INC, priority 2011, dated 2018) are described below.

The subject of one assay is U87MG cells. In words: Cellular assay for IDH1m inhibitors: inhibition of 2-HG production (LC-MS, 48 hours) in U87MG cells. The assay is classed as cell-based. As to conditions: Homo sapiens, U-87 MG, inhibition of 2-HG production, U87R132H cells; read-out: U87R132H IC50. The method, then: Cells (e.g., HT1080 or U87MG) and are grown in T125 flasks in DMEM containing 10% FBS, 1× penicillin/streptomycin and 500 ug/mL G418. They are harvested by trypsin and seeded into 96 well white bottom plates at a density of 5000 cell/well in 100 ul/well in DMEM with 10% FBS. No cells are plates in columns 1 and 12. Cells are incubated overnight at 37° C. in 5% CO2. The next day compounds are made up at 2× concentration and 100 ul are added to each cell well. The final concentration of DMSO is 0.2% and the DMSO control wells are plated in row G. The plates are then placed in the incubator for 48 hours. At 48 hours, 100 μl of media is removed from each well and analyzed by LC-MS for 2-HG concentrations. The cell plate is placed back in the incubator for another 24 hours. At 72 hours post compound addition, 10 mL/plate of Promega Cell Titer Glo reagent is thawed and mixed. The cell plate is removed from the incubator and allowed to equilibrate to room temperature. Then 100 ul of reagent is added to each well of media. The cell plate is then placed on an orbital shaker for 10 minutes and then allowed to sit at room temperature for 20 minutes. The plate is then read for luminescence with an integration time of 500 ms.
The IC50 for inhibition of 2-HG production (concentration of test compound to reduce 2HG production by 50% compared to control) in these two cell lines for various compounds of formula I is set forth in Table 4 above.

The target of another assay is IDH1 R132H (Homo sapiens, UniProt O75874, R132H). In words: Assay for IDH1 R132H inhibitors (NADPH/aKG, resazurin detection). The assay is classed as biochemical. The settings on record: enzyme assay of Example 12; read-out: IDH1R132H IC50. In outline:
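Read-out is resorufin fluorescence (Ex544/Em590) 5 min after adding a 30 μM resazurin detection mix. Before that, mutant enzyme (0.2 μg/ml in its mix) ran 50 min at room temperature with compound, 8 uM NADPH and 2 mM aKG (mix levels) in Tris pH 7.5 with NaCl, MgCl2, BSA.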

The test system of the next assay is HT1080 cells. In words: Cellular assay for IDH1m inhibitors: inhibition of 2-HG production (LC-MS, 48 hours) in HT1080 cells. The assay is classed as cell-based. The settings on record: Homo sapiens, HT-1080; inhibition of 2-HG production, HT1080 cells; read-out: HT1080 IC50. In outline:
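HT1080 or U87MG cells were seeded at 5000/well in DMEM with 10% FBS, incubated overnight, then treated with compounds (0.2% DMSO final) for 48 h. Medium 2-HG was quantified by LC-MS, and IC50 was taken as the concentration reducing 2-HG by 50% versus DMSO control.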

pIC50: −log10 of the molar value.

IDH1 R132H, sequence (O75874 whole entry R132H): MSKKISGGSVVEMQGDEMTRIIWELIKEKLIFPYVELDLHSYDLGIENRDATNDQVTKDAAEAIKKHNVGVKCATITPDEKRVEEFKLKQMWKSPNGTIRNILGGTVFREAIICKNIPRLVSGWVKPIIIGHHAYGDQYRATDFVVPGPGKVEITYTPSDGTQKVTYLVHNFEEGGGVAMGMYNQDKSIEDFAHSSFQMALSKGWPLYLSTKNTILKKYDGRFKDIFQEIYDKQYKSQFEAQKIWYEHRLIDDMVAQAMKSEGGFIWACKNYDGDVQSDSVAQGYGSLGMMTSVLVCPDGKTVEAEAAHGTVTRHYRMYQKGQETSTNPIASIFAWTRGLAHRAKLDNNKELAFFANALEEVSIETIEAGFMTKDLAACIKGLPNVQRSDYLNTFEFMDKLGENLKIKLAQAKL

The term pIC50 denotes −log10 of the IC50, conventionally taken in molar units. For `C=Cc1ccnc(Nc2cc(C#N)c(N3CCN(C(=O)CCO)[C@H](C(C)C)C3)nc2C2CC2)c1` [Compound 757, (R)-6-cyclopropyl-2-(4-(3-hydroxypropanoyl)-3-isopropylpiperazin-1-yl)-5-((4-vinylpyridin-2-yl)amino)nicotinonitrile], the pIC50 with U87MG cells and at IDH1 R132H was more than 6.30 each time.
As for `C=Cc1ncc2c(-c3cc(C#N)c(N4CCN(C(=O)CCO)[C@H](C5CC5)C4)nc3C3CC3)cccc2n1` [Compound 651, (R)-6-cyclopropyl-2-(3-cyclopropyl-4-(3-hydroxypropanoyl)piperazin-1-yl)-5-(2-vinylquinazolin-5-yl)nicotinonitrile], the pIC50 with U87MG cells and on IDH1 R132H was more than 6.30 throughout.
On to `C=Cc1ncc2c(-c3cc(C#N)c(N4CCN(C(=O)CCO)[C@H](C(C)C)C4)nc3C3CC3)cccc2n1` [Compound 650, (R)-6-cyclopropyl-2-(4-(3-hydroxypropanoyl)-3-isopropylpiperazin-1-yl)-5-(2-vinylquinazolin-5-yl)nicotinonitrile], for which the pIC50 in the assay with U87MG cells and at IDH1 R132H was more than 6.30 throughout.
As to `C=Cc1cc(-c2c(C3CC3)nc(N3CCN(C(=O)CCO)[C@H](C(C)C)C3)c(C#N)c2C)cnn1` [Compound 773, (R)-6-cyclopropyl-2-(4-(3-hydroxypropanoyl)-3-isopropylpiperazin-1-yl)-4-methyl-5-(6-vinylpyridazin-4-yl)nicotinonitrile], the negative logarithm of the IC50 (pIC50) in the assay with U87MG cells and on IDH1 R132H was more than 6.30 in each case.
`C=Cc1cc(-c2cc(C#N)c(N3CCN(C(=O)CCO)[C@H](C4CC4)C3)nc2C2CC2)c2cccnc2n1` [Compound 691]: the pIC50 with U87MG cells was more than 6.30.
Consider `N#Cc1cc(Cc2ccnc(Cl)c2)c(C2CC2)nc1N1CCN(C(=O)CCO)[C@H](C2CC2)C1` [Compound 708, (R)-5-((2-chloropyridin-4-yl)methyl)-6-cyclopropyl-2-(3-cyclopropyl-4-(3-hydroxypropanoyl)piperazin-1-yl)nicotinonitrile], for which the pIC50 with U87MG cells is 5.00 to 6.00; on IDH1 R132H it was more than 6.30.
As to `N#Cc1cc(-c2cnnc(OS(=O)(=O)C(F)(F)F)c2)c(C2CC2)nc1N1CCN(C(=O)C2CC2)[C@H](C2CC2)C1` [Compound 687, (R)-5-(5-cyano-6-(4-(cyclopropanecarbonyl)-3-cyclopropylpiperazin-1-yl)-2-cyclopropylpyridin-3-yl)pyridazin-3-yl trifluoromethanesulfonate], the pIC50 is 6.00 to 6.30 in the assay on U87MG cells and more than 6.30 on IDH1 R132H.
The corresponding values for `C=Cc1ccnc(Nc2cc(C#N)c(N3CCN(C(=O)CCOC)[C@H](C(C)C)C3)nc2C2CC2)c1` [Compound 758, (R)-6-cyclopropyl-2-(3-isopropyl-4-(3-methoxypropanoyl)piperazin-1-yl)-5-((4-vinylpyridin-2-yl)amino)nicotinonitrile] are more than 6.30 and more than 6.30.
For the compound `C=Cc1ccnc(Nc2cc(C#N)c(N3CCN(C(=O)CC4CCC4)[C@H](C4CC4)C3)nc2C2CC2)c1` [Compound 817, (R)-2-(4-(2-cyclobutylacetyl)-3-cyclopropylpiperazin-1-yl)-6-cyclopropyl-5-((4-vinylpyridin-2-yl)amino)nicotinonitrile], the pIC50 with HT1080 cells and on IDH1 R132H was more than 6.30 each time.
Regarding `C=Cc1cc(-c2c(C3CC3)nc(N3CCN(C(=O)CC4CCC4)[C@H](C4CC4)C3)c(C#N)c2C)ccn1` [Compound 819, (R)-6-(4-(2-cyclobutylacetyl)-3-cyclopropylpiperazin-1-yl)-2-cyclopropyl-4-methyl-2′-vinyl-3,4′-bipyridine-5-carbonitrile], the pIC50 in the assay on HT1080 cells and on IDH1 R132H was more than 6.30 each time.
`C=Cc1cc(-c2cc(C#N)c(N3CCN(C(=O)COC)[C@H](C4CC4)C3)nc2C2CC2)nc(N)n1` [Compound 759, (R)-5-(2-amino-6-vinylpyrimidin-4-yl)-6-cyclopropyl-2-(3-cyclopropyl-4-(2-methoxyacetyl)piperazin-1-yl)nicotinonitrile]: the pIC50 with U87MG cells and on IDH1 R132H was more than 6.30 throughout.
For the compound `C=Cc1ccc(-c2cc(C#N)c(N3CCN(C(=O)CCOC)[C@H](C)C3)nc2C2CC2)cn1` [Compound 620, (R)-2-cyclopropyl-6-(4-(3-methoxypropanoyl)-3-methylpiperazin-1-yl)-6′-vinyl-3,3′-bipyridine-5-carbonitrile], the pIC50 with HT1080 cells and on IDH1 R132H was more than 6.30 in each case.
Regarding `CCS(=O)(=O)N1CCN(c2cc(C#N)c(N3CCN(C(=O)CC(F)(F)F)[C@H](C4CC4)C3)nc2C2CC2)CC1` [Compound 559], the pIC50 is 5.00 to 6.00 in the assay on HT1080 cells and more than 6.30 on IDH1 R132H.
As for `C[C@@H]1CN(c2nc(C3CC3)c(-c3ccnc(C#N)c3)cc2C#N)CCN1C(=O)C1CC1` [Compound 522, (R)-6-(4-(cyclopropanecarbonyl)-3-methylpiperazin-1-yl)-2-cyclopropyl-3,4′-bipyridine-2′,5-dicarbonitrile], the pIC50 was 5.00 to 6.00 in the assay with HT1080 cells and 6.00 to 6.30 at IDH1 R132H.
As for `C=C(C)c1cc(-c2cc(C#N)c(N3CCN(C(=O)C4CC4)[C@H](C4CC4)C3)nc2C2CC2)ccn1` [Compound 544, (R)-6-(4-(cyclopropanecarbonyl)-3-cyclopropylpiperazin-1-yl)-2-cyclopropyl-2′-(prop-1-en-2-yl)-3,4′-bipyridine-5-carbonitrile], the figures for the pIC50 in the assay with HT1080 cells and at IDH1 R132H were 6.00 to 6.30 and more than 6.30, respectively.
In the case of `COCCC(=O)N1CCN(c2nc(C3CC3)c(Oc3ccnc(Cl)c3)cc2C#N)C[C@H]1C` [Compound 668, (R)-5-((2-chloropyridin-4-yl)oxy)-6-cyclopropyl-2-(4-(3-methoxypropanoyl)-3-methylpiperazin-1-yl)nicotinonitrile], the pIC50 in the assay with HT1080 cells is 6.00 to 6.30; at IDH1 R132H it was more than 6.30.
The corresponding values for `C=Cc1cc(-c2cc(C#N)c(N3CCN(C(=O)CCOC)[C@H](C4CC4)C3)nc2C2CC2)c2ccccc2n1` [Compound 574, (R)-6-cyclopropyl-2-(3-cyclopropyl-4-(3-methoxypropanoyl)piperazin-1-yl)-5-(2-vinylquinolin-4-yl)nicotinonitrile] are more than 6.30 and more than 6.30.
For `C=Cc1cc(Cc2cc(C#N)c(N3CCN(C(=O)C4CC4)[C@H](C4CC4)C3)nc2C2CC2)ccn1` [Compound 684, (R)-2-(4-(cyclopropanecarbonyl)-3-cyclopropylpiperazin-1-yl)-6-cyclopropyl-5-((2-vinylpyridin-4-yl)methyl)nicotinonitrile], the pIC50 in the assay on HT1080 cells and on IDH1 R132H was more than 6.30 in each case.
Regarding `C=Cc1cc(-c2c(C3CC3)nc(N3CCN(C(=O)C[C@H]4CCO4)[C@H](C4CC4)C3)c(C#N)c2CC)ccn1` [Compound 823, 2-cyclopropyl-6-((R)-3-cyclopropyl-4-(2-((R)-oxetan-2-yl)acetyl)piperazin-1-yl)-4-ethyl-2′-vinyl-[3,4′-bipyridine]-5-carbonitrile], the pIC50 in the assay on HT1080 cells and at IDH1 R132H was more than 6.30 in each case.
As to `COCCC(=O)N1CCN(c2nc(C3CC3)c(-c3ccc4nccnc4c3)cc2C#N)C[C@H]1C` [Compound 445, (R)-6-cyclopropyl-2-(4-(3-methoxypropanoyl)-3-methylpiperazin-1-yl)-5-(quinoxalin-6-yl)nicotinonitrile], the pIC50 in the assay on HT1080 cells is 5.00 to 6.00; on IDH1 R132H, more than 6.30.
The corresponding values for `N#Cc1cc(Nc2ccnc(Cl)c2)c(C2CC2)nc1N1CCN(C(=O)CCO)[C@H](C2CC2)C1` [Compound 677, (R)-5-((2-chloropyridin-4-yl)amino)-6-cyclopropyl-2-(3-cyclopropyl-4-(3-hydroxypropanoyl)piperazin-1-yl)nicotinonitrile] are more than 6.30 and more than 6.30.
On to `C=CC(=O)N1CCC=C(c2cc(C#N)c(N3CCN(C(=O)C4CC4)[C@H](C)C3)nc2C2CC2)C1` [Compound 575, (R)-5-(1-acryloyl-1,2,5,6-tetrahydropyridin-3-yl)-2-(4-(cyclopropanecarbonyl)-3-methylpiperazin-1-yl)-6-cyclopropylnicotinonitrile], for which the pIC50 in the assay on HT1080 cells and at IDH1 R132H was more than 6.30 throughout.
With `C=CC(=O)N1CCC=C(c2c(C3CC3)nc(N3CCN(C(=O)CCOC)[C@H](C)C3)c(C#N)c2C)C1` [Compound 680, (R)-5-(1-acryloyl-1,2,5,6-tetrahydropyridin-3-yl)-6-cyclopropyl-2-(4-(3-methoxypropanoyl)-3-methylpiperazin-1-yl)-4-methylnicotinonitrile], the pIC50 in the assay on HT1080 cells and at IDH1 R132H was more than 6.30 each time.
